Experimental findings from article PMC7235778, “Methylxanthines Inhibit Primary Amine Oxidase and Monoamine Oxidase Activities of Human Adipose Tissue” (Medicines, 2020) are described below.

Assay [1] concerns the target T1, primary amine oxidase (PrAO; SSAO/VAP-1) (Homo sapiens, UniProt Q16853).
T1 construct: gene AOC3; native enzyme in human subcutaneous adipose tissue homogenate
T1 sequence (Q16853 1-763): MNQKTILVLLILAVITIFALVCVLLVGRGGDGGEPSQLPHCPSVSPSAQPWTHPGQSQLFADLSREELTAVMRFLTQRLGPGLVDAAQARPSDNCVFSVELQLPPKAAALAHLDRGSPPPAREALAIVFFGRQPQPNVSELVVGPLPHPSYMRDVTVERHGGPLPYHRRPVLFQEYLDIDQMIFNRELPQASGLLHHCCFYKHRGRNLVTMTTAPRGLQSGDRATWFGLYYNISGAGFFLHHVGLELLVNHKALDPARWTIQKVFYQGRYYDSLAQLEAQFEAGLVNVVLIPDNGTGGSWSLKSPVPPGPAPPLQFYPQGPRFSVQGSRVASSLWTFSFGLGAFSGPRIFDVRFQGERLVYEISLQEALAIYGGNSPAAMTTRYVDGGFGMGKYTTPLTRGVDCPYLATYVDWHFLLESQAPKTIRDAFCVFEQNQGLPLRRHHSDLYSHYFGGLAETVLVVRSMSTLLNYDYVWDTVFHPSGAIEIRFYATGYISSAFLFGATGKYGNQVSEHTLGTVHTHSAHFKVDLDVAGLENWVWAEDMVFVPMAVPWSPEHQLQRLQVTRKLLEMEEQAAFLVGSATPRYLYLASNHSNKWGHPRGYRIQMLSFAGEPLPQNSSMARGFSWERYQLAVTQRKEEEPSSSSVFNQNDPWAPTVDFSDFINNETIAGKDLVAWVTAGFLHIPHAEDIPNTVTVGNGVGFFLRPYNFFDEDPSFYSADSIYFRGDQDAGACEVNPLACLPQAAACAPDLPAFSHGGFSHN
In words: Amplex Red H2O2 assay of benzylamine oxidation in adipose tissue homogenate; Lineweaver-Burk analysis. It is filed as cell-based. As to conditions: read-out: % inhibition at 2.5 mM.

Assay [2] has as its target T1, primary amine oxidase (PrAO; SSAO/VAP-1). In words: Amplex Red H2O2 assay of benzylamine and methylamine oxidation in adipose tissue homogenate. It counts as cell-based. As to conditions: read-out: % inhibition at 2.5 mM.
The target is the same in assay [3]. Briefly: Amplex Red H2O2 assay of methylamine and benzylamine oxidation in adipose tissue homogenate. It is filed as cell-based. As to conditions: read-out: % inhibition at 1 mM.
For assay [4] the target is unchanged. Briefly: Amplex Red H2O2 assay of benzylamine and methylamine oxidation in adipose tissue homogenate. It counts as biochemical.

Take `Cn1cnc2c1c(=O)[nH]c(=O)n2C` [theobromine]: in assay [1], the inhibition at 2500 µM amounted to 54%.
`Cn1c(=O)c2c(ncn2C)n(C)c1=O` [caffeine]: in assay [2], the inhibition at 2500 µM is around 50%.
In the case of `CC(C)Cn1c(=O)n(C)c(=O)c2[nH]cnc21` [IBMX, 3-isobutyl-1-methylxanthine], the inhibition at 1000 µM in assay [3] was around 80%.
Take `NNC(N)=O` [Semi, semicarbazide]: in assay [4], the “Amplex Red H2O2 assay of benzylamine and methylamine oxidation in adipose tissue” value is recorded as “total inhibition at 1”.
